# Values of other authors as cited in patent US20060093571A1, “Hair and skin protecting compositions based on esters or ethers of betulin” (priority 2004, published 2006).
# Key:
# elastase = target: T1, elastase (Homo sapiens, UniProt P08246); conditions: known from literature
# T1 sequence (P08246 30-247 limits assumed): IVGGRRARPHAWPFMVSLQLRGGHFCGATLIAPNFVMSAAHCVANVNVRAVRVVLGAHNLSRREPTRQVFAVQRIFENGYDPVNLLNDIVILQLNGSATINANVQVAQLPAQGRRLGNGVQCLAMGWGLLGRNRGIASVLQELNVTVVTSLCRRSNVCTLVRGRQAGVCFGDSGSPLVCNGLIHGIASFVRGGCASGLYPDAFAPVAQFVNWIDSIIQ
Compound,solubility in polar and non-polar solvents,inhibition of enzymatic activity of elastase (elastase)
C=C(C)[C@@H]1CC[C@]2(CO)CC[C@]3(C)[C@H](CC[C@@H]4[C@@]5(C)CC[C@H](O)C(C)(C)[C@@H]5CC[C@]43C)[C@@H]12 [Betulin],poor solubility,inhibit
C=C(C)[C@@H]1CC[C@]2(C(=O)O)CC[C@]3(C)[C@H](CC[C@@H]4[C@@]5(C)CC[C@H](O)C(C)(C)[C@@H]5CC[C@]43C)[C@@H]12 [betulinic acid],poor solubility,–
CC1(C)CC[C@]2(C(=O)O)CC[C@]3(C)C(=CC[C@@H]4[C@@]5(C)CC[C@H](O)C(C)(C)[C@@H]5CC[C@]43C)[C@@H]2C1 [oleanolic acid],poor solubility,inhibit
C[C@H]1[C@H](C)CC[C@]2(C(=O)O)CC[C@]3(C)C(=CC[C@@H]4[C@@]5(C)CC[C@H](O)C(C)(C)[C@@H]5CC[C@]43C)[C@H]12 [ursolic acid],poor solubility,inhibit
